From patent US7919487B2, “Heteroaryl compounds” (Synta Pharmaceuticals Corporation, priority 2004, dated 2011)

These compounds were tested on IL-12 production in human PBMC or THP-1 cells (assay: Human in vitro assay: inhibition of IL-12 production in human PBMC or THP-1 cells (ELISA)). Conditions: THP-1, human PBMC or THP-1 cells, IFNγ plus LPS or SAC stimulation, representative in vitro data.
Assay type: cell-based
Text: The biological activities of the compounds of the invention can be evaluated by a number of cell-based assays. One of such assays can be conducted using cells from human peripheral blood mononuclear cells (PBMC) or human monocytic cell line (THP-1). The cells are stimulated with a combination of human interferon-γ (IFNγ) and lipopolysaccharide or a combination of IFNγ and Staphylococcus aureus Cowan I in the presence of a test compound. The level of inhibition of IL-12 production can be measured by determining the amount of p70 by using a sandwich ELISA assay with anti-human IL-12 antibodies. IC50 of the test compound can then be determined. Specifically, PBMC or THP-1 cells are incubated with the test compound. Cell viability was assessed using the bioreduction of MTS [3-(4,5-dimethylthiazol-2-yl)-5-(3-carboxymethoxyphenyl)-2-(4-sulfophenyl)-2H-tetrazolium] (Promega, Madison, Wis.).
Reagents. Staphylococcus aureus Cowan I (SAC) was obtained from Calbiochem (La Jolla, Calif.), and lipopolysaccharide (LPS, Serratia marscencens) was obtained from Sigma (St Louis, Mo.). Human and mouse recombinant IFNγ were purchased from Boehringer Mannheim (Mannheim, Germany) and Pharmingen (San Diego, Calif.), respectively.
Human In Vitro Assay. Human PBMC were isolated by centrifugation using Ficoll-Paque (Pharmacia Biotech, Uppsala, Sweden) and prepared in RPMI medium supplemented with 10% fetal calf serum (FCS), 100 U/mL penicillin, and 100 μg/mL streptomycin. PBMC were plated in wells of a 96-well plate at a concentration of 5×10^5 cells/well, and primed by adding IFNγ (30 U/mL) for 22 h and stimulated by adding LPS (1 μg/mL), or by adding IFNγ (100 U/mL) and then stimulated by adding SAC (0.01%). A test pyrimidine compound was dissolved in DMSO, and added to wells of the 96-well plate. The final DMSO concentration was adjusted to 0.25% in all cultures, including the compound-free control. Human THP-1 cells were plated in wells, primed by adding IFNγ (100 U/mL) for 22 h and stimulated by adding SAC (0.025%) in the presence of different concentrations of the pyrimidine compound. Cell-free supernatants were taken 18 h later for measurement of cytokines. Cell viability was assessed using the bioreduction of MTS. Cell survival was estimated by determining the ratio of the absorbance in compound-treated groups versus compound-free control.
The supernatant was assayed for the amount of IL-12p40, IL-12p70, or IL-10 by using a sandwich ELISA with anti-human antibodies, i.e., a Human IL-12 p40 ELISA kit from R&D Systems (Berkeley, Calif.), and a Human IL-12 p70 or IL-10 ELISA kit from Endogen (Cambridge, Mass.). Assays were based on the manufacturer's instructions.
The biological activities of compounds were tested on human PBMC or THP-1 cells.

SMILES	IC50 [µM]
Cc1[nH]c2ccc(NC(=O)c3cccc(-c4ccsc4)n3)cc2c1C [Compound 105, 6-Thiophen-3-yl-pyridine-2-carboxylic acid(2,3-dimethyl-1H-indol-5-yl)-amide]	> 1
COc1ccc(CCOc2cc(N(C)C)nc(N/N=C/c3cccc(C)c3)n2)cc1OC [Compound 16, {6-[2-(3,4-Dimethoxy-phenyl)-ethoxy]-2-[N′-(3-methyl-benzylidene)-hydrazino]-pyrimidin-4-yl}-dimethyl-amine]	1.06
Cc1cccc(/C=N/Nc2nc(CCCOC(=O)Nc3ccc([N+](=O)[O-])cc3)cc(N(C)C)n2)c1 [Compound 28, (4-Nitro-phenyl)-carbamic acid 3-{6-dimethylamino-2-[N′-(3-methyl-benzylidene)-hydrazino]-pyrimidin-4-yl}-propyl ester]	1.4
